# Assay results as given in ChEMBL document CHEMBL1201862, “PubChem BioAssay data set” (2004).
# The source made the active and inactive calls.
# Legend:
# Caspase-3 = target: T1, Caspase-3 (Homo sapiens, UniProt P42574); format: functional;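 also: Dose-response selectivity test against caspase-3 for candidate inhibitors of sentrin-specific proteases (SENPs)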
# T1 sequence (P42574 whole entry): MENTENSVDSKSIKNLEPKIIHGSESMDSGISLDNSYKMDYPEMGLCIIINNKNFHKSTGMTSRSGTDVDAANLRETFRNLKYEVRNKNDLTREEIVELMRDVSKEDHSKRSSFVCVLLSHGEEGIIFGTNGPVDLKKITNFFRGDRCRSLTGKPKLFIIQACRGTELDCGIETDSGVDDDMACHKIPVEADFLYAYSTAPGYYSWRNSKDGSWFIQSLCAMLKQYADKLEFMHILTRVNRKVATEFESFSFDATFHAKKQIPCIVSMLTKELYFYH
# [1] = target: T2, Sentrin-specific protease 8 (Homo sapiens, UniProt Q96LD8); format: functional;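 also: luminescence read-out of SENP8 inhibition, dose-response confirmation following an ultra-high-throughput screen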
# T2 sequence (Q96LD8 whole entry): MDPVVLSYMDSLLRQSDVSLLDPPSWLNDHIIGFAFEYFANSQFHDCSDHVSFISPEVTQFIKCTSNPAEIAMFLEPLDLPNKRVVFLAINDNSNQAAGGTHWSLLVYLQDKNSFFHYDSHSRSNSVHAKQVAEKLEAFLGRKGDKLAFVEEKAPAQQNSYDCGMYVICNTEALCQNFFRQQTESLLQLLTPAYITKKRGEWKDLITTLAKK
# [2] = target: T3, Sentrin-specific protease 6 (Homo sapiens, UniProt Q9GZR1); format: functional;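 also: Luminescence-based dose-response confirmatory assay of SENP6 inhibition, following up an ultra-high-throughput screen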
# T3 sequence (Q9GZR1 whole entry): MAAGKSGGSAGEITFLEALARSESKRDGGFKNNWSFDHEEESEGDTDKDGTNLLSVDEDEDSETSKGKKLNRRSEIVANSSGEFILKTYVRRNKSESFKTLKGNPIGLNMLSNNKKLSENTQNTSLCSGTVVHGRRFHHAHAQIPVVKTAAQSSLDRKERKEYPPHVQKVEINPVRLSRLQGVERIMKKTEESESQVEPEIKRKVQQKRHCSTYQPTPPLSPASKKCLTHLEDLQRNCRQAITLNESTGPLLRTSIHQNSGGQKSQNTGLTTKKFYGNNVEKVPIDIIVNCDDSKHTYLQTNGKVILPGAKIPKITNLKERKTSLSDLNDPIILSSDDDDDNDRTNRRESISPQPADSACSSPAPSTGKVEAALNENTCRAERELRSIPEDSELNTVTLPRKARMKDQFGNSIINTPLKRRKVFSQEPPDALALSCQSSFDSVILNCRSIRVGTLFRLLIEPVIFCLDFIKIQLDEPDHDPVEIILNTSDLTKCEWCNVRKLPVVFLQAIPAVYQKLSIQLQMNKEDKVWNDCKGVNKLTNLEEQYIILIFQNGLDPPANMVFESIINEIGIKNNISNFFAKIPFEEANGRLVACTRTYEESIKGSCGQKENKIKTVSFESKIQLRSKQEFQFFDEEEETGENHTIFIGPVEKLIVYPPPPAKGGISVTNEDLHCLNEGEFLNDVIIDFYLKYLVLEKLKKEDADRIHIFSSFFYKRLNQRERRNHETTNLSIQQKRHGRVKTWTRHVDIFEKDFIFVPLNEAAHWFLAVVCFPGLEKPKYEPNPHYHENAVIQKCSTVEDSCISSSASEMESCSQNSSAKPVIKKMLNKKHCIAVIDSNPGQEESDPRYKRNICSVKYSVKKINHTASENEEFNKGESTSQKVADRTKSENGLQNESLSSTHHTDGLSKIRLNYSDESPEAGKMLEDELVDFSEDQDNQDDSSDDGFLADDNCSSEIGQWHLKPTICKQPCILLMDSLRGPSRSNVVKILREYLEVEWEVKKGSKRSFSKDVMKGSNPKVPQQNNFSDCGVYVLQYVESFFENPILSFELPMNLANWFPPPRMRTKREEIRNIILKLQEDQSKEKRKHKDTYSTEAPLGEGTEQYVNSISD
# [3] = target: T4, Sentrin-specific protease 7 (Homo sapiens, UniProt Q9BQF6); format: functional;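 also: Luminescence-based dose-response confirmation of ultra-high-throughput screening hits, measuring inhibition of SENP7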
# T4 sequence (Q9BQF6 whole entry): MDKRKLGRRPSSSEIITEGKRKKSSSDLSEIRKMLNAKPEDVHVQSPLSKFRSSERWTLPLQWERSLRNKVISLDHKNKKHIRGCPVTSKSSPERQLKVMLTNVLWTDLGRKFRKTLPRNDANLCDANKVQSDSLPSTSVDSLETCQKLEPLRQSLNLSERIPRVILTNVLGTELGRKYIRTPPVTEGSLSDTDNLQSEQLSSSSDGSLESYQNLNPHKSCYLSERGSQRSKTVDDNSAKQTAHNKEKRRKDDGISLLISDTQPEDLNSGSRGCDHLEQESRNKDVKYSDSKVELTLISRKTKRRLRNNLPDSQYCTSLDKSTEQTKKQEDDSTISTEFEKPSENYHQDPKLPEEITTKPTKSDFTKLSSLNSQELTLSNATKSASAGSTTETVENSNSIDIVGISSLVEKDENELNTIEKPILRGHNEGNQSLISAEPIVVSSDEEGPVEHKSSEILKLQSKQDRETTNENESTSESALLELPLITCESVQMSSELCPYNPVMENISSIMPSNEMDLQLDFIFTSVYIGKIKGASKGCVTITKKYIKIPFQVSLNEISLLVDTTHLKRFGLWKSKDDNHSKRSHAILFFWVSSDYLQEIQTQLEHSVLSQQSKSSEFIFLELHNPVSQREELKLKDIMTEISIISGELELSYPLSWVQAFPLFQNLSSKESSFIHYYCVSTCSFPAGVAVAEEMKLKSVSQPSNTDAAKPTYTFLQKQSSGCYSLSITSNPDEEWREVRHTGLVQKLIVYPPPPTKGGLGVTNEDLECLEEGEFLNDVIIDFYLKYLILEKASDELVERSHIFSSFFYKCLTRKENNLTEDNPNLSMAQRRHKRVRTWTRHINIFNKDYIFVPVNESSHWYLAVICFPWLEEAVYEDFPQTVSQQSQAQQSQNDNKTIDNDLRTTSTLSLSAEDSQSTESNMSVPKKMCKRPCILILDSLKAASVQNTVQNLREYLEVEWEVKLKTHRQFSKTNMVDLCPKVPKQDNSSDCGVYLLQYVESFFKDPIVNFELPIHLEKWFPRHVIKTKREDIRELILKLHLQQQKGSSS
# [4] = HEp-2 cell cytotoxicity, dose response, cytotoxicity control for RSV inhibitor project, HTS (AID 2410); format: functional; conditions: human respiratory syncytial virus
# [5] = target: T5, Short transient receptor potential channel 4 (Mus musculus, UniProt Q9QUQ5); experiment: mouse TRPC4 channel activators, dose response, cell-based, HEK293 TRPC4/mu-opioid, Fluo-4 calcium (AID 434937); format: functional
# T5 sequence (Q9QUQ5 whole entry): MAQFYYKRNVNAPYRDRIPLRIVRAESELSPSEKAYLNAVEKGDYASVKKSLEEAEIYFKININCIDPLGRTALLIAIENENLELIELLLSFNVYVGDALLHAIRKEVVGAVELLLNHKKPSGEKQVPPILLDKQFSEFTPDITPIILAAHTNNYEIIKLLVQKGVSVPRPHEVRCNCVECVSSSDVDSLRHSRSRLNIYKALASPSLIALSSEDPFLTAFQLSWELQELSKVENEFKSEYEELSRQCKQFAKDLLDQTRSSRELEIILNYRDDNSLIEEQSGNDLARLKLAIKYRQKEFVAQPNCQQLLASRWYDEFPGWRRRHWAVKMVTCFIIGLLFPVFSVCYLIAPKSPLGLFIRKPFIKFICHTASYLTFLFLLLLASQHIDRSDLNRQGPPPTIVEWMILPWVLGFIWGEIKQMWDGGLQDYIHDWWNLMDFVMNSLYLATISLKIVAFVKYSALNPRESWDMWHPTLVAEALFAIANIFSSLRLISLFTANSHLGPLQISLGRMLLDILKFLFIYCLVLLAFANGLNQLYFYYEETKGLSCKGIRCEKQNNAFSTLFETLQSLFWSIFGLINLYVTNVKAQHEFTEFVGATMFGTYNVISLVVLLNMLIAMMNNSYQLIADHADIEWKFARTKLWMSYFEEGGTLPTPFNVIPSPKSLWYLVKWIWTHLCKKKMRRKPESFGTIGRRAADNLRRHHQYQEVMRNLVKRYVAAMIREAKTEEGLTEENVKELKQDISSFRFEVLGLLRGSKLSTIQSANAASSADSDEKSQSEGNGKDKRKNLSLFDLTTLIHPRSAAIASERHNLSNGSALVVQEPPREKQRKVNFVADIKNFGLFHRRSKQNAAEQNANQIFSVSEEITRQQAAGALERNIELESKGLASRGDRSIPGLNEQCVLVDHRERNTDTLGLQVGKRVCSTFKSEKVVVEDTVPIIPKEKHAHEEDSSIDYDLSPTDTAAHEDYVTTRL
# [6] = inhibitors of firefly luciferase expression or activity, dose response, H4 neuroglioma cells, luminescence (AID 1990); format: functional, cell-based
# [7] = Luminescence Cell-Based Dose Response HTS to Identify Inhibitors of 5'UTR Stem-Loop Driven Prion Protein mRNA Translation in H4 Neuroglioblastoma Cells. [Related pubchem assays: 1827 (Project Summary), 1813 (Primary HTS)]; format: functional
# [8] = inhibitors of SNCA 5'UTR-driven reporter translation, confirmation, H4 neuroglioma cells, luminescence (AID 1988); format: functional, cell-based
# [9] = inhibitors of intracellular T. cruzi replication, confirmation, NIH3T3 host cells, beta-gal luminescence (AID 2044); format: functional, cell-based;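 also: intracellular parasites grown in NIH/3T3 mouse fibroblasts as host cells; luminescent beta-galactosidase reporter signal from transgenic T. cruzi replicating inside host cells; inhibitors lower the luminescence signal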
# [10] = target: T6, Polyadenylate-binding protein 1 (Homo sapiens, UniProt P11940); experiment: PABP1 MLLE–PAM2 binding inhibitor potency, dose response, biochemical, fluorescence polarization, FITC-PAM2 peptide (AID 602259); format: functional; conditions: read-out: IC50_Mean
# T6 sequence (P11940 whole entry): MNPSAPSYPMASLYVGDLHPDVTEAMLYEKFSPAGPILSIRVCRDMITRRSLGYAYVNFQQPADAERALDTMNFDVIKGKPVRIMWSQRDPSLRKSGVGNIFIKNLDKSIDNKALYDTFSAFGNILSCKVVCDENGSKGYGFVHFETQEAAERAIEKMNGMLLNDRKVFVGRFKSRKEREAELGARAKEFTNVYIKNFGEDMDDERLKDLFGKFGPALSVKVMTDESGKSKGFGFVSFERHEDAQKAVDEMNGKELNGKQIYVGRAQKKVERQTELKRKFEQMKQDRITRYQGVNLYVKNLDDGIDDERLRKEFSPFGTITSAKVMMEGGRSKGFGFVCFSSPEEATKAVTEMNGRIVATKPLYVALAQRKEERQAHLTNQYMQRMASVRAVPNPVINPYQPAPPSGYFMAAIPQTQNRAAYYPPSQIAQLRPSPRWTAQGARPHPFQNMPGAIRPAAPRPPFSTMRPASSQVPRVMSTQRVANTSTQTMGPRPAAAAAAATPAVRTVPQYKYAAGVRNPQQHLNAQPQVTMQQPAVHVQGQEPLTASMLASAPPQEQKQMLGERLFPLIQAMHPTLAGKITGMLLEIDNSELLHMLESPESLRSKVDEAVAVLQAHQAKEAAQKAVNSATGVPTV
# [11] = target: T6, Polyadenylate-binding protein 1; experiment: PABP1 MLLE–PAM2 interaction inhibitors, dose response, miRNA deadenylation inhibitor project, biochemical, fluorescence polarization, Cy5-PAM2 peptide, secondary (AID 602260); format: functional; conditions: read-out: IC50_Mean
# [12] = cytotoxicity toward NIH3T3 fibroblasts, dose response, counter-screen, cell-based, ATP luminescence, mouse fibroblasts (AID 2010); format: functional;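 also: cells exposed to compound for about 90 hours before reading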
# [13] = Shn3 3'UTR reporter inhibitors, dose response, cell-based, Clone20 osteoblasts, firefly luciferase, cherry-picked (AID 624132); format: functional;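 also: firefly luciferase luminescence from reporter carrying the Shn3 3'UTR in osteoblasts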
# [14] = control 3'UTR Renilla luciferase suppression, dose response, counter-screen for Shn3 inhibitor project, cell-based, Clone20-Shn3RL, cherry-picked (AID 624133); format: functional
# INS1 = experiment: beta cell apoptosis inhibitors, cytokine rescue, dose response, luminescence, retest (AID 449756); format: functional, cell-based; conditions: Rattus norvegicus;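 also: cell death triggered by IL-1 beta plus TNF-alpha plus IFN-gamma mixture; protective hits raise ATP signal compared with cytokine alone wells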
# [15] = HepG2 cell cytotoxicity, dose response, cytotoxicity control for Shn3 inhibitor project, CellTiter-Glo, cherry-picked (AID 624134); format: functional, cell-based
# [16] = Luminescence Cell-Based Dose Response HTS to Identify Activators of Luciferase Translation or Activity in H4 […] Cells. [Related pubchem assays: 1829 (Project Summary), 1814 (Primary HTS)]; format: functional
# [17] = microbe, parasite or virus in culture; format: functional; conditions: Mycobacterium tuberculosis
# H4 = experiment: Luminescence Cell-Based Dose Response HTS to Identify Activators of 5'UTR Stem-Loop Driven Prion Protein mRNA Translation in H4 Neuroglioblastoma Cells. [Related pubchem assays: 1829 (Project Summary), 1814 (Primary HTS)]; format: functional; conditions: Homo sapiens
# [18] = Luminescence Cell-Based Dose Confirmation HTS to Identify Activators of 5'UTR Stem-Loop Driven Alpha-Synuclein mRNA Translation in H4 Neuroglioblastoma Cells. [Related pubchem assays: 1829 (Project Summary), 1814 (Primary HTS)]; format: functional
# [19] = Luminescence Cell-Based Dose Retest to Confirm Inhibitors of Cancer Stem Cells. [Related pubchem assays (depositor defined):AID2717, AID2721]; format: functional; conditions: Homo sapiens
smiles,measurement,setting,value
N=c1oc2ccccc2cc1C(=O)Nc1ccccc1,IC50,Caspase-3,13.6 µM (active)
same,IC50,[1],> 100 µM (inactive)
same,IC50,[2],15.6 µM (active)
same,IC50,[3],11.4 µM (active)
O=C(Oc1ccc2ccccc2c1Cl)N1CCCCCC1,IC50,Caspase-3,17.4 µM (active)
same,IC50,[1],15.4 µM (active)
same,CC50,[4],27.6 µM (active)
same,IC50,[2],10.6 µM (active)
same,IC50,[3],7.15 µM (active)
Cc1ccc(Oc2cc(-n3nc(C)cc3C)ncn2)cc1,IC50,Caspase-3,23.5 µM (active)
same,IC50,[1],54.7 µM (active)
same,IC50,[2],35.7 µM (active)
same,IC50,[3],9.25 µM (active)
Cc1csc2c(N3CCN(C(S)=Nc4ccc(F)cc4F)CC3)ncnc12,EC50,[5],1.88 µM (active)
CN(C)CCCN(C(=O)c1ccc(S(=O)(=O)N2CCCc3ccccc32)cc1)c1nc2ccc(F)cc2s1,EC50,[5],2.37 µM (active)
same,EC50,[6],12.6 µM (active)
same,EC50,[7],> 120 µM (not active)
same,EC50,[8],> 120 µM (not active)
Sc1nnc2c3ccccc3n(CCc3ccccc3)c2n1,CC50,[4],23.8 µM (active)
same,EC50,[9],2.69 µM (active)
same,IC50,[10],> 66 µM (inactive)
same,IC50,[11],> 66 µM (inactive)
same,EC50,[12],> 60 µM (not active)
COc1ccccc1/C=C/CN1CCC(n2nccc2NC(=O)CCc2ccccc2)CC1,AC50,[13],1.91 µM (active)
same,AC50,[14],4.23 µM (active)
same,AC50,INS1,5.75 µM (active)
same,AC50,[15],42.3 µM (active)
COc1cc(/C=C/C(=O)Nc2nnc(C(C)(C)C)s2)cc(OC)c1OC,IC50,[10],> 66 µM (inactive)
same,IC50,[11],> 66 µM (inactive)
CC(=O)c1cc(-c2ccccc2)[nH]c1N1CCOCC1,IC50,[10],> 66 µM (inactive)
same,IC50,[11],> 66 µM (inactive)
COc1ccc(C2CC(c3cccs3)=Nc3ccccc3S2)cc1 (configuration not stated),EC50,[16],9.21 µM (active)
same,IC50,[10],> 66 µM (inactive)
same,CC50,[17],> 40 µM (active)
same,EC50,H4,7.12 µM (active)
same,IC50,[11],> 66 µM (inactive)
same,EC50,[18],7.19 µM (active)
Cc1ccc(C)c(S(=O)(=O)N2CCN(c3ncnc4sccc34)CC2)c1,AC50,[13],0.631 µM (active)
same,AC50,[14],2.38 µM (active)
same,AC50,[19],1.25 µM (active)
same,AC50,INS1,3.41 µM (active)
same,AC50,[15],2.55 µM (active)
CN(CC(=O)Nc1ccccc1Cl)C(=O)c1cccc(S(=O)(=O)N2CCN(Cc3ccccc3)CC2)c1,AC50,[13],3.47 µM (active)
same,AC50,[14],4.83 µM (active)
same,AC50,[15],50.5 µM (active)
COc1ccc(Cc2c(C(C)(C)C)nc3c(C)cc(Br)cn23)c(C)c1,IC50,[10],52.7 µM (inactive)
same,IC50,[11],> 66 µM (inactive)
